Data taken from ChEMBL document CHEMBL4602617, “Discovery and optimization of heteroaryl piperazines as potent and selective PI3Kδ inhibitors” (Bioorg Med Chem Lett, 2020).

Assays:
[1] = target: Beta-adrenergic receptor kinase 1 (Homo sapiens, UniProt P25098); assay: Inhibition of recombinant full length human His-tagged GRK2 expressed in baculovirus expression system using serine/threonine-16 peptide as substrate incubated for 60 mins in presence of ATP by Z'-LYTE assay
[2] = target: Phosphatidylinositol 4-kinase alpha (Homo sapiens, UniProt P42356); assay: Inhibition of recombinant full length human N-terminal GST-tagged PI4KA expressed in baculovirus expression system using PI lipid as substrate incubated for 60 mins in presence of ATP by Adapta assay
[3] = target: Fibroblast growth factor receptor 4 (Homo sapiens, UniProt P22455); assay: Inhibition of recombinant human His-tagged FGFR4 catalytic domain ([…]) expressed in baculovirus expression system using tyrosine-4 peptide as substrate incubated for 60 mins in presence of ATP by Z'-LYTE assay
Chain of Fibroblast growth factor receptor 4 (P22455 whole entry, the tested form may be a part): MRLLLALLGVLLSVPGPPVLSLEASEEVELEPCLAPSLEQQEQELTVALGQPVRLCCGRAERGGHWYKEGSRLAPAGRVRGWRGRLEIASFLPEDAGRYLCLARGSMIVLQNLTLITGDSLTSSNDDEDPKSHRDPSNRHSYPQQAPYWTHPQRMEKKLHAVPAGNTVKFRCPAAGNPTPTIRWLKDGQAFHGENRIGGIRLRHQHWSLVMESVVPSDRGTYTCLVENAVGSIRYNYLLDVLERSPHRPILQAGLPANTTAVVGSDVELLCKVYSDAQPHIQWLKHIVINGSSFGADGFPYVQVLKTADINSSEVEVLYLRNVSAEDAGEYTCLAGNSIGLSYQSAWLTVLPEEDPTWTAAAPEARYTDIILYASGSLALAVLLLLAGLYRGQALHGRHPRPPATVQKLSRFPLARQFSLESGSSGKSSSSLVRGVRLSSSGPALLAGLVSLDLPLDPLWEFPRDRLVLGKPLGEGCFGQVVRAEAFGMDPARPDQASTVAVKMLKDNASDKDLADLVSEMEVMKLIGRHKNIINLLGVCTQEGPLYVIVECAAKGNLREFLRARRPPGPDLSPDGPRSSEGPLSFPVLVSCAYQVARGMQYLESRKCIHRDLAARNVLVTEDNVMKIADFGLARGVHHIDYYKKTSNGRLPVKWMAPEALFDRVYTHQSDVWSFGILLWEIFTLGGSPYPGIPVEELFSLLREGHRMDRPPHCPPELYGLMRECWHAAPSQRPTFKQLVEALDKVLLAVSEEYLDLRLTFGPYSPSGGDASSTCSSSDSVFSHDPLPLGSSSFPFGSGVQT

[4] = target: 5-hydroxytryptamine receptor 3A (Homo sapiens) (UniProt P46098); assay: Displacement of [3H]GR-65630 from full length human recombinant 5HT3 receptor expressed in HEK293 cells at 10 uM measured after 60 mins by radiometric scintillation analysis relative to control; assay type: cell-based
[5] = target: Serine/threonine-protein kinase TAO2 (Homo sapiens, UniProt Q9UL54); assay: Inhibition of recombinant human GST-tagged TAO2 catalytic domain (1 to 314 residues) expressed in baculovirus expression system using serine/threonine-7 peptide as substrate incubated for 60 mins in presence of ATP by Z'-LYTE assay
Chain of Serine/threonine-protein kinase TAO2 (Q9UL54 whole entry, the tested form may be a part): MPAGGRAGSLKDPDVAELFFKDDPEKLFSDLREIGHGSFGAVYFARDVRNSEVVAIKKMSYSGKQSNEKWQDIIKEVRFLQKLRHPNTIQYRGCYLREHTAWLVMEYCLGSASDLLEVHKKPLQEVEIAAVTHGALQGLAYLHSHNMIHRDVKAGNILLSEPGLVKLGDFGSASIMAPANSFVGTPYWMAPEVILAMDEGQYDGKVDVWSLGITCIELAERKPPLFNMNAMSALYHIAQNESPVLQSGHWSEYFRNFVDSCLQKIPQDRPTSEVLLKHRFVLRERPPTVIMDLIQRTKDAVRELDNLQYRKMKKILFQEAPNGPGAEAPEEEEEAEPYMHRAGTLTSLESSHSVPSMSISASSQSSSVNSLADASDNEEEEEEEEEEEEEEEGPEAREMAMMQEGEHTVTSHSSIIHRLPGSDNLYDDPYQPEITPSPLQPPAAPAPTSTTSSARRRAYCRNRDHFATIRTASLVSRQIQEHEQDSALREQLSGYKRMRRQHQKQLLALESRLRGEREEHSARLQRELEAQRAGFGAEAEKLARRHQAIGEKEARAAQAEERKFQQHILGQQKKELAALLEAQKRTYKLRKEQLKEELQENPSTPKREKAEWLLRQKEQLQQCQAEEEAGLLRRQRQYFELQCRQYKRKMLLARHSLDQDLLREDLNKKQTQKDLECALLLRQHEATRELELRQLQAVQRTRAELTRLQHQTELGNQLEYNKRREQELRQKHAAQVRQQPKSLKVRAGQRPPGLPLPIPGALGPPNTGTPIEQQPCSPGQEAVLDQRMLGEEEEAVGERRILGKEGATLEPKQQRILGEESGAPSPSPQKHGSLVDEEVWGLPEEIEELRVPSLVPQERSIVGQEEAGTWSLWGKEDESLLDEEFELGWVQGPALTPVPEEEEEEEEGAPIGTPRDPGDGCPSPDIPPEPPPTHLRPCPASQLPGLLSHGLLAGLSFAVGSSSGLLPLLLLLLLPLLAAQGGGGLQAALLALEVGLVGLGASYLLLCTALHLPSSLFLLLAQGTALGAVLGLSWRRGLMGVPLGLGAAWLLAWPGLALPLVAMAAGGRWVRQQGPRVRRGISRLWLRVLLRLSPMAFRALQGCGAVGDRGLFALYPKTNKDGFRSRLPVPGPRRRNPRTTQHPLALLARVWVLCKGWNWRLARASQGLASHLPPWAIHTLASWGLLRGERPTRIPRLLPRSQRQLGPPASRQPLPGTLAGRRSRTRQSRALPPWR

[6] = target: Cytochrome P450 2C9 (Homo sapiens, UniProt P11712); assay: Inhibition of CYP2C9 (unknown origin); assay type: ADME
[7] = Volume of drug distribution in rat at 0.5 mg/kg, iv or 1 mg/kg, po; assay type: ADME, organism-based; conditions: in vivo
[8] = target: Ephrin type-A receptor 4 (Homo sapiens, UniProt P54764); assay: Inhibition of recombinant human GST-tagged EPHA4 cytoplasmic domain expressed in baculovirus expression system using tyrosine-02 peptide as substrate incubated for 60 mins in presence of ATP by Z'-Lyte assay
[9] = target: Macrophage-stimulating protein receptor (Homo sapiens, UniProt Q04912); assay: Inhibition of recombinant human GST-tagged RON catalytic domain (983 to 1400 residues) expressed in baculovirus expression system using tyrosine-6 peptide as substrate incubated for 60 mins in presence of ATP by Z'-LYTE assay
Chain of Macrophage-stimulating protein receptor (Q04912 25-304 limits assumed): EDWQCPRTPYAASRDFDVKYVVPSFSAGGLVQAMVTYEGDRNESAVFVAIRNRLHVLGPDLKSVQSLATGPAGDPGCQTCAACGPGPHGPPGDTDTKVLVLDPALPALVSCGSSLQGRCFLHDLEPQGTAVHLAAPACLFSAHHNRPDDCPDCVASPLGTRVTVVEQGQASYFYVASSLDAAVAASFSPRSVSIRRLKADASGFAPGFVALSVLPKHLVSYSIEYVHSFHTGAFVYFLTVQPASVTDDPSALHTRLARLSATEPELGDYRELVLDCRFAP
Chain of Macrophage-stimulating protein receptor (Q04912 310-1400 limits assumed): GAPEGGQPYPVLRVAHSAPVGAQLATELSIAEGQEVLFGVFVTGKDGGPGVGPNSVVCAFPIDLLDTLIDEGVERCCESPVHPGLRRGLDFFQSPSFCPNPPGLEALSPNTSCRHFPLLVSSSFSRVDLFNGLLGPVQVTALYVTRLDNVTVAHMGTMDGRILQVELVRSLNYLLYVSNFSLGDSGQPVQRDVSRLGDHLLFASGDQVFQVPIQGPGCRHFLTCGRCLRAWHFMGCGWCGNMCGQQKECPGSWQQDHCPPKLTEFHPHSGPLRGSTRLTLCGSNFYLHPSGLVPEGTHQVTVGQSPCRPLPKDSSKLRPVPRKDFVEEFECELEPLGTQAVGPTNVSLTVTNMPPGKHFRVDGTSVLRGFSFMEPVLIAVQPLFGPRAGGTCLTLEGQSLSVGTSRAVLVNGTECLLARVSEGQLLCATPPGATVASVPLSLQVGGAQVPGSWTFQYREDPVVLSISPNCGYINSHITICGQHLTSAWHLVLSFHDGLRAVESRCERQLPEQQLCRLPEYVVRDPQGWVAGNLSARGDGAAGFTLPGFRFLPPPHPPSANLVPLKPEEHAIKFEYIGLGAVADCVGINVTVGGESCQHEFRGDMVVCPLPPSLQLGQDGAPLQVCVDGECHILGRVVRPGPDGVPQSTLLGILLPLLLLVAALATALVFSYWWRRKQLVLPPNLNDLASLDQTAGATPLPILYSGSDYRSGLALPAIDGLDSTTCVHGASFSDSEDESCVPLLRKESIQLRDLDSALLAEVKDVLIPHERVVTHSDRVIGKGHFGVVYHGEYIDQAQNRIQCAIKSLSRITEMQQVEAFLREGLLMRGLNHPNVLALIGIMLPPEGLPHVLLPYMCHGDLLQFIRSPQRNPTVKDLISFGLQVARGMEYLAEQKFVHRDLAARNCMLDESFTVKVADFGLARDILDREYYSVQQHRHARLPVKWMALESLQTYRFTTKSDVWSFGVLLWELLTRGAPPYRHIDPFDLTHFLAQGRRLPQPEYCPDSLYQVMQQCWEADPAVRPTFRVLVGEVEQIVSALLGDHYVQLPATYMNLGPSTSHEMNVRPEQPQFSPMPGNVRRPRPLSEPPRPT

[10] = target: Neuropeptide Y receptor type 1 (Homo sapiens) (UniProt P25929); assay: Displacement of [[125I]peptide YY from full length human SK-N-MC cell-derived Y1 neuropeptide receptor at 10 uM measured after 60 mins by radiometric scintillation analysis relative to control; assay type: cell-based
[11] = target: Calcium/calmodulin-dependent protein kinase type 1 (Homo sapiens, UniProt Q14012); assay: Inhibition of full length human CAMK1 alpha expressed in baculovirus expression system using ZIPtide as substrate after 1 hr in presence of ATP by TR-FRET based assay
[12] = target: AMP-activated protein kinase (AMPK) alpha-1/beta-1/gamma-1 (Homo sapiens, UniProt P54619+Q13131+Q9Y478); assay: Inhibition of recombinant full length GST/His-tagged human AMPK alpha1/beta1/gamma1 expressed in insect cells using Ser/Thr-23 peptide as substrate incubated for 60 mins in presence of ATP by Z'-LYTE assay
[13] = target: Ephrin type-B receptor 3 (Homo sapiens, UniProt P54753); assay: Inhibition of recombinant human GST-tagged EPHB3 catalytic domain expressed in baculovirus expression system using tyrosine-2 peptide as substrate incubated for 60 mins in presence of ATP by Z'-LYTE assay
[14] = target: Casein kinase I isoform gamma-1 (Homo sapiens, UniProt Q9HCP0); assay: Inhibition of recombinant human full-length GST-tagged CSNK1G1 expressed in baculovirus expression system using FRET-labeled Ser/Thr 05 peptide as substrate measured after 1 hr in presence of ATP by Z'-lyte assay
[15] = target: Protein kinase C beta type (Homo sapiens, UniProt P05771); assay: Inhibition of recombinant full length human GST-tagged PKCbeta1 expressed in insect expression system using serine/threonine-7 peptide as substrate incubated for 60 mins in presence of ATP by Z'-LYTE assay
[16] = Clearance in rat liver microsomes; assay type: ADME, Microsome; conditions: read-out: CLH
[17] = target: Phosphatidylinositol 3-kinase catalytic subunit type 3 (Homo sapiens, UniProt Q8NEB9); assay: Inhibition of recombinant full length human GST-tagged PIK3C3 expressed in baculovirus expression system using PI lipid as substrate incubated for 60 mins in presence of ATP by Adapta assay
[18] = target: Ephrin type-B receptor 4 (Homo sapiens, UniProt P54760); assay: Inhibition of recombinant human His-tagged EPHB4 (561 to 987 residues) catalytic domain expressed in baculovirus expression system using tyrosine-01 peptide as substrate incubated for 60 mins in presence of ATP by Z'-LYTE assay
[19] = target: Ephrin type-B receptor 1 (Homo sapiens, UniProt P54762); assay: Inhibition of recombinant human GST-tagged EPHB1 catalytic domain expressed in baculovirus expression system using tyrosine-2 peptide as substrate incubated for 60 mins in presence of ATP by Z'-LYTE assay
[20] = target: Dual specificity mitogen-activated protein kinase kinase 6 (Homo sapiens, UniProt P52564); assay: Inhibition of recombinant full length human His-tagged MAP2K6 expressed in baculovirus expression system using serine/threonine-3 peptide as substrate incubated for 60 mins in presence of ATP by Z'-LYTE assay
[21] = target: Dual specificity protein kinase CLK1 (Homo sapiens, UniProt P49759); assay: Inhibition of recombinant human GST-tagged CLK1 catalytic domain (129 to 484 residues) expressed in Escherichia coli expression system using serine/threonine-9 peptide as substrate incubated for 60 mins in presence of ATP by Z'-LYTE assay
[22] = target: Beta-1 adrenergic receptor (Homo sapiens) (UniProt P08588); assay: Displacement of [125I]cyanopindolol from full-length recombinant human beta1 adrenergic receptor expressed in CHOK1 cells at 10 uM measured after 120 mins by scintillation counting method relative to control; assay type: cell-based; conditions: CHO-K1
[23] = target: Serine/threonine-protein kinase Sgk3 (Homo sapiens, UniProt Q96BR1); assay: Inhibition of recombinant human GST-tagged SGK3 catalytic domain (87 to 496 residues) expressed in baculovirus expression system using serine/threonine-6 peptide as substrate incubated for 60 mins in presence of ATP by Z'-LYTE assay
Chain of Serine/threonine-protein kinase Sgk3 (Q96BR1 whole entry, the tested form may be a part): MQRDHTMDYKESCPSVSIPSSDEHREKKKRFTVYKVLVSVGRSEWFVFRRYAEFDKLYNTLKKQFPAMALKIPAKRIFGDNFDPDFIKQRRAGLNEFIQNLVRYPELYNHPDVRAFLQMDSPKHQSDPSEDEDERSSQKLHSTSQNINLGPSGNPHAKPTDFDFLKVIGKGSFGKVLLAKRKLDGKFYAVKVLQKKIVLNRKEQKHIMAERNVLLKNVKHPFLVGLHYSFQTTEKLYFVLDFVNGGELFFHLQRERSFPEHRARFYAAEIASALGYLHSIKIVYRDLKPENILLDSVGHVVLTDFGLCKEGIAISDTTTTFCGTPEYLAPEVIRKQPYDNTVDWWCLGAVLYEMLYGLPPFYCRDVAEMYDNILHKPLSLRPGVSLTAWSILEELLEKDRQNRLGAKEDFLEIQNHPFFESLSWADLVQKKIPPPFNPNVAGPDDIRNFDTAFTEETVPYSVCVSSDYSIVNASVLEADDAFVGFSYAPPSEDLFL

[24] = target: Voltage-gated inwardly rectifying potassium channel KCNH2 (Homo sapiens, UniProt Q12809); assay: Inhibition of human ERG
[25] = target: High affinity nerve growth factor receptor (Homo sapiens, UniProt P04629); assay: Inhibition of recombinant human His-tagged NTRK1 cytoplasmic domain expressed in baculovirus expression system using FRET-labeled tyr 07 peptide as substrate measured after 1 hr in presence of ATP by Z'-lyte assay
[26] = target: Interleukin-1 receptor-associated kinase 4 (Homo sapiens, UniProt Q9NWZ3); assay: Inhibition of recombinant full length human His-tagged IRAK4 expressed in baculovirus expression system using serine/threonine-7 peptide as substrate incubated for 60 mins in presence of ATP by Z'-LYTE assay
Chain of Interleukin-1 receptor-associated kinase 4 (Q9NWZ3 whole entry): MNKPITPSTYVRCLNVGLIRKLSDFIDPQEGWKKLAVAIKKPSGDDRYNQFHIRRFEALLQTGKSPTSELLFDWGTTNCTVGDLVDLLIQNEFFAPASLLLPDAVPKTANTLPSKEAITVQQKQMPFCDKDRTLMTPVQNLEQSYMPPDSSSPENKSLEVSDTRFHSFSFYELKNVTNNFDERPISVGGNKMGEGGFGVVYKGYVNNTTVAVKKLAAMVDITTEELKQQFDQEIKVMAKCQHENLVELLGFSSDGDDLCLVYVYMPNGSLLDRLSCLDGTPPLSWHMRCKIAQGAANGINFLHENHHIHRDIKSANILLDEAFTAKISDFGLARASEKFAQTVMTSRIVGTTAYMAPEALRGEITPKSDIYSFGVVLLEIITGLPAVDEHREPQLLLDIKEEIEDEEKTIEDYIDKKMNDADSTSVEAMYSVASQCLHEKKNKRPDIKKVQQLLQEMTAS

Chain of Beta-adrenergic receptor kinase 1 (P25098 whole entry): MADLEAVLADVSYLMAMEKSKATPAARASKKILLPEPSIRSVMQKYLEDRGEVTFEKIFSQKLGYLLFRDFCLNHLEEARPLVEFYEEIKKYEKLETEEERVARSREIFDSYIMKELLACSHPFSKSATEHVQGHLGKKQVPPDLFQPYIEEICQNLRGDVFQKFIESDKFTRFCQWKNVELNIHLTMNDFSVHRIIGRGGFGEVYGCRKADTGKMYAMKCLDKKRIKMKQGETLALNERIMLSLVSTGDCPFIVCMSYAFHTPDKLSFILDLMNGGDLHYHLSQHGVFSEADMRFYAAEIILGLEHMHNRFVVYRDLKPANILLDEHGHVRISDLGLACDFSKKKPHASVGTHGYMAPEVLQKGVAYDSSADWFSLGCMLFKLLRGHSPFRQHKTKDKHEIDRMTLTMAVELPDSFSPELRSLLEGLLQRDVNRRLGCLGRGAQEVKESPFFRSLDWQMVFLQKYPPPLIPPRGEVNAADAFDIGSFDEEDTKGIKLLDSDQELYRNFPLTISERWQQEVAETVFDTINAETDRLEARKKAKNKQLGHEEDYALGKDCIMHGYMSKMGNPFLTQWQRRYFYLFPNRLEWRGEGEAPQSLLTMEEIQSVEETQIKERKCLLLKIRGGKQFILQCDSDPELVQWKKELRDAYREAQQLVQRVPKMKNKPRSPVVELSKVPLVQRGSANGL

C[C@@H]1C[C@H]1C(=O)N1CCN(c2cnc(C#N)c(-c3cnn(C)c3)n2)C[C@H]1C
IC50 [1]: > 100 µM
IC50 [2]: > 100 µM
IC50 [3]: > 100 µM
inhibition [4]: 9%
IC50 [5]: > 100 µM
IC50 [6]: > 50 µM
Vd [7]: 1.1 L/kg
IC50 [8]: > 100 µM
IC50 [9]: > 100 µM
inhibition [10]: 10%
IC50 [11]: > 100 µM
IC50 [12]: > 100 µM
IC50 [13]: > 100 µM
IC50 [14]: > 100 µM
IC50 [15]: > 100 µM
CLint scaled [16]: 47 mL/min/kg
IC50 [17]: > 100 µM
IC50 [18]: > 100 µM
IC50 [19]: 37.7 µM
IC50 [20]: > 100 µM
IC50 [21]: > 100 µM
inhibition [22]: 4%
IC50 [23]: > 100 µM
IC50 [24]: 23 µM
IC50 [25]: > 100 µM
IC50 [26]: > 100 µM
